The target of series [1] is human ATR kinase (ATR/ATRIP (h)) (Homo sapiens (Human), UniProt Q13535). In words: ATR enzyme activity in vitro (HTRF kinase assay). In kind it is biochemical. As to conditions: 10 μM ATP, GST-cMyc-p53 substrate. As to the method:
The inhibitory activity of the test compounds against human ATR kinase was evaluated by measuring IC50 value.
ATR/ATRIP (h) was incubated in detection buffer containing 50 nM GST-cMyc-p53 and Mg/ATP (10 μM). The reaction was initiated by adding Mg/ATP mixture. After incubation at room temperature for 30 minutes, the reaction was terminated by adding a termination solution containing EDTA. Finally, a detection buffer containing d^2-labeled anti-GST monoclonal antibody and europium-labeled anti-phospho-Ser15 antibody against phosphorylated p53 were added. Plates were then read in time-resolved fluorescence mode for homogeneous time resolution.
The fluorescence (HTRF) signal was determined according to the formula HTRF=10000×(Em665 nm/Em620 nm).
(In general: Time-resolved FRET reads energy transfer from a long-lived donor to a nearby acceptor.)

Another series concerns tumor cell line LoVo. In words: In vitro LoVo cell proliferation inhibition (CellTiter-Glo). In kind it is cell-based. As to conditions: Homo sapiens, LoVo cells. As to the method:
In this experiment, the inhibitory effect of the compounds on cell proliferation was studied by detecting the effect of the compounds on the in vitro cell activity in the tumor cell line LoVo.
CellTiter-Glo Luminescent Cell Viability Assay
The following steps were carried out according to the instructions of PromegaCellTiter-Glo luminescent cell viability assay kit (Promega-G7573).
(1) CellTiter-Glo buffer was thawed and placed at room temperature.
(2) CellTiter-Glo substrate was placed at room temperature.
(3) CellTiter-Glo working solution was prepared by adding CellTiter-Glo buffer to a vial of CellTiter-Glo substrate to dissolve the substrate.
(4) Slowly vortexed to fully dissolve. […]
(8) The culture plate was left at room temperature for 10 minutes to stabilize the luminescence signal.
(9) The luminescence signal was detected on the SpectraMax i3x of Molecular Devices plate reader.
The Inhibition rate (IR) of the test compound was calculated using the following formula: IR (%)=(1−(RLU compound−RLU blank control)/(RLU solvent control−RLU blank control))*100%. The inhibition rates of different concentrations of the compounds were calculated in Excel, and then the inhibition curves were made by GraphPad Prism software and the related parameters were calculated, including the minimum inhibition rate, the maximum inhibition rate and IC50.
For orientation: In ATP-based viability assays light output follows the ATP content of the culture.

In series [2] the test system is human gastric cancer SNU-601 xenograft tumor. Put plainly: In vivo efficacy, human gastric cancer cell SNU-601 CDX xenograft model. The arrangement: species or system mice. The following applies: for tumor volume: day 21, CB17 SCID mice. An excerpt: The main objective of this study was to study the antitumor efficacy of the test sample on the xenograft tumor model of human gastric cancer cell SNU-601.
• Species: mice • Strain: CB17 SCID mice • Supplier: Huafukang Laboratory Animal Technology Co., Ltd. • Week age: 6-8 weeks old • Gender: female 2. Cell Culture
Human gastric cancer SNU-601 cells, sourced from KCLB (Cat. No.: 00601), were maintained and passaged by HD Biosciences (Shanghai) Co., Ltd. In vitro culture conditions were RPMI 1640 culture medium (containing 300 mg/L L-glutamine) with 10% fetal bovine serum, 25 mM HEPES and 25 mM sodium bicarbonate, incubated in 5% CO2 incubator at 37° C., and passaged for two or three times a week. When the number of cells reached the requirement, the cells were collected and counted. 0.2 mL (5×10^6 cells) SNU-601 cells (resuspended in DPBS:Matrigel=1:1) were subcutaneously inoculated into the right back of each mouse, and the group administration was started when the average tumor volume reached 147.61 mm^3.
Administration dosage: Compound 1 was orally administered at three doses of 15 mg/kg (administered for 3 days without administration for 4 days), 10 mg/kg (administered for 3 days without administration for 4 days) and 5 mg/kg (continuous administration).
Tumor diameters were measured with vernier calipers three times a week. The tumor volume was calculated by the formula: V=0.5×a×b^2, wherein a and b referred to the long and short diameter of the tumor, respectively. The calculation formula of relative tumor volume (RTV) was: RTV (%)=(Vt/V1)×100; the calculation formula of animal body weight change (BWC) was: BWC (%)=(BWt−BW1)/BW1×100, wherein V1 and BW1 referred to the tumor volume and body weight of a certain animal on the day of group administration, and Vt and BWt referred to the tumor volume and body weight of a certain animal at a certain measurement.
The antitumor efficacy of the compounds was evaluated by TGI (%) or relative tumor proliferation rate T/C (%). Relative tumor proliferation rate T/C (%)=TRTV/CRTV×100 (TRTV: mean RTV of the treatment group; CRTV: mean RTV of the negative control group). The relative tumor volume (RTV) was calculated according to the results of tumor measurement, and the calculation formula was RTV=Vt/V1, wherein V1 was the tumor volume measured at the time of group administration (that is, D1), Vt was the tumor volume at a certain measurement, and the data of TRTV and CRTV were taken on the same day.
TGI (%) reflected the tumor growth inhibition rate. TGI (%)=[(1−(average tumor volume at the end of administration of a certain treatment group−average tumor volume at the beginning of administration of this treatment group))/(average tumor volume at the end of treatment in the solvent control group−average tumor volume at the beginning of treatment in the solvent control group)]×100.
After the experiment, the tumor weight would be detected, and the percentage of Tweight/Cweight would be calculated. Tweight and Cweight referred to the tumor weight of the administration group and the solvent control group, respectively.
In this experiment, the xenograft tumor model of human gastric cancer cell SNU601 was used to evaluate the in vivo efficacy of the test compounds. During the whole administration period, no animals were discontinued due to body weight loss of more than 10%, and the efficacy test was terminated on the 21st day after administration.
Background: A xenograft is tissue or cells of one species grown in another, often human tumour cells in immunodeficient mice.

Series [3] can be described thus: In vivo pharmacokinetics in female Balb/c Nude mice. As to the method:
Test sample: On the basis of the above experiments, compound 1 was selected for further experiments.
Experimental methods: The purpose of this study was to determine the pharmacokinetic parameters of compound 1 and to calculate its oral bioavailability in female Balb/c Nude mice. This project used 4 female Balb/c Nude mice. Two mice were administered intravenously at a dose of 1 mg/kg, and plasma samples were collected at 0 hours (before administration) and 0.0833, 0.25, 0.5, 1, 2, 4, 6, 8, 24 hours after administration. The other two mice were administered orally by gavage at a dose of 10 mg/kg or 25 mg/kg, and plasma samples were collected at 0 hours (before administration) and 0.25, 0.5, 1, 2, 4, 6, 8, 24 hours after administration. The collected samples were then analyzed by LC/MS/MS and data were collected. The collected analysis data were used to calculate the relevant pharmacokinetic parameters by Phoenix WinNonlin 6.2.1 software.

[4] abbreviates: whole experimental period, compound 1 administration group.
Where [5] appears, read: mouse, plasma, intravenous 1 mg/kg.

Sequence of human ATR kinase (ATR/ATRIP (h)) (Q13535 whole entry): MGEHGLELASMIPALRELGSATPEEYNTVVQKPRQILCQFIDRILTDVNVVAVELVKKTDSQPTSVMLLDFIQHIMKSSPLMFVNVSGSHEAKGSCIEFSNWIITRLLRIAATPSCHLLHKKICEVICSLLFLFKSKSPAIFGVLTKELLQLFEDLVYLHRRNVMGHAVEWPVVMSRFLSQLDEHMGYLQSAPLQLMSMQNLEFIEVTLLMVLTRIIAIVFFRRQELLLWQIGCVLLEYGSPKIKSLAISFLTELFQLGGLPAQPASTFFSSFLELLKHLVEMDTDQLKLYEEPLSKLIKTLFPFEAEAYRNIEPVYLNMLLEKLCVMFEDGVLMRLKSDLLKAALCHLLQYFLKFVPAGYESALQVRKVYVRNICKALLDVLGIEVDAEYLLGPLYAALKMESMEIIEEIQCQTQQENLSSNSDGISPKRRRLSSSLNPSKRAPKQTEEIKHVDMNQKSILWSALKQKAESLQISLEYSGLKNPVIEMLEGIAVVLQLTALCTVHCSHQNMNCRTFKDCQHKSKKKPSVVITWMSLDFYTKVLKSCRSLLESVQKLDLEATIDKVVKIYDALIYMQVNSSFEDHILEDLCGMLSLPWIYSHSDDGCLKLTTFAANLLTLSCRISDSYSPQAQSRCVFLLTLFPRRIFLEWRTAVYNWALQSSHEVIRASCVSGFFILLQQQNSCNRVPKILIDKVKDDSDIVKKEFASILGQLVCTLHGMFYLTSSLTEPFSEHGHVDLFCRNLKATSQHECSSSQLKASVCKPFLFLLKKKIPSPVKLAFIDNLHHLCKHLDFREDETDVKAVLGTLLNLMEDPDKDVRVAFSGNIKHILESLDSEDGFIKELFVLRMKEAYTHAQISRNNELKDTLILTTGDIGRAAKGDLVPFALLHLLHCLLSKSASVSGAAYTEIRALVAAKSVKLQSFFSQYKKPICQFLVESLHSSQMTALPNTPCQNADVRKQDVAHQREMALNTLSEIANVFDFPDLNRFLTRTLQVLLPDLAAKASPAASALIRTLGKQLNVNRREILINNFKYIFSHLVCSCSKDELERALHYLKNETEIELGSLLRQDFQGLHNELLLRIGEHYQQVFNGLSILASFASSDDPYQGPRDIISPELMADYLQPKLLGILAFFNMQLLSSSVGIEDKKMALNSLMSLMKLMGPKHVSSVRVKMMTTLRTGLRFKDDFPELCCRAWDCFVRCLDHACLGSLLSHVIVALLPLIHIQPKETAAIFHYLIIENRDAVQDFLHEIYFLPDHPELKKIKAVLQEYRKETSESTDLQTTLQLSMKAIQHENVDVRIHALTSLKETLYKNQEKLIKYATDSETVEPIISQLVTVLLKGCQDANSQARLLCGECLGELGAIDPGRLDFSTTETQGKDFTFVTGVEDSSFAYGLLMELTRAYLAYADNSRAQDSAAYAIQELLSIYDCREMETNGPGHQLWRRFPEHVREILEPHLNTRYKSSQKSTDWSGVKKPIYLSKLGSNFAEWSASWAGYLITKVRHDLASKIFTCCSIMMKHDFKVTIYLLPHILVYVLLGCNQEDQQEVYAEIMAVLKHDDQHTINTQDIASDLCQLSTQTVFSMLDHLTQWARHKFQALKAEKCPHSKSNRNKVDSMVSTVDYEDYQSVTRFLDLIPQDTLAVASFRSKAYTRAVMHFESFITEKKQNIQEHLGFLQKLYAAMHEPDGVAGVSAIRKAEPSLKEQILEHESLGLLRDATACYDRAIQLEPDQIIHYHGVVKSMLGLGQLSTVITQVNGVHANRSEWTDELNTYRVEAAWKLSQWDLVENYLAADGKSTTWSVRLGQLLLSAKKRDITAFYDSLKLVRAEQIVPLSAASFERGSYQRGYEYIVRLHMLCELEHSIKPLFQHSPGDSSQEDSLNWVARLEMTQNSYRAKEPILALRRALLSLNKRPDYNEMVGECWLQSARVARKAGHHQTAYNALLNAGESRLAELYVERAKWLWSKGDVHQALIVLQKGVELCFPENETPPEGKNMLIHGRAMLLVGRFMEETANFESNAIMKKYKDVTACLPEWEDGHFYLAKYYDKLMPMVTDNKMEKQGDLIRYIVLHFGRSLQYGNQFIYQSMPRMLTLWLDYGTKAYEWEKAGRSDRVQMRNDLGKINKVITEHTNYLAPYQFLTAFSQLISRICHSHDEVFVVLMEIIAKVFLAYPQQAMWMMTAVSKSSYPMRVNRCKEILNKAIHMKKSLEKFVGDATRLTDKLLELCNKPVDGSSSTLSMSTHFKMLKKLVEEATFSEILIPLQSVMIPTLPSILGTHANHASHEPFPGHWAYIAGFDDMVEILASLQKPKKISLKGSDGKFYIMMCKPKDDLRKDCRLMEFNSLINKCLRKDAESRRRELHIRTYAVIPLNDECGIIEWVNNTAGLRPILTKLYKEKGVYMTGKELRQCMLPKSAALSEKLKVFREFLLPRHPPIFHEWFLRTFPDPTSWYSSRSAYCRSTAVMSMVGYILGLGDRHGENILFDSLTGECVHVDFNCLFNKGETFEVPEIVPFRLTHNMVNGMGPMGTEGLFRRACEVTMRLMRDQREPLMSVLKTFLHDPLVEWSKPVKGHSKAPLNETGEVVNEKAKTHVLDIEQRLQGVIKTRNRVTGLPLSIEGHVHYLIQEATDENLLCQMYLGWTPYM
Sequence of human ATR kinase (ATR/ATRIP (h)) (Q8WXE1 whole entry partner): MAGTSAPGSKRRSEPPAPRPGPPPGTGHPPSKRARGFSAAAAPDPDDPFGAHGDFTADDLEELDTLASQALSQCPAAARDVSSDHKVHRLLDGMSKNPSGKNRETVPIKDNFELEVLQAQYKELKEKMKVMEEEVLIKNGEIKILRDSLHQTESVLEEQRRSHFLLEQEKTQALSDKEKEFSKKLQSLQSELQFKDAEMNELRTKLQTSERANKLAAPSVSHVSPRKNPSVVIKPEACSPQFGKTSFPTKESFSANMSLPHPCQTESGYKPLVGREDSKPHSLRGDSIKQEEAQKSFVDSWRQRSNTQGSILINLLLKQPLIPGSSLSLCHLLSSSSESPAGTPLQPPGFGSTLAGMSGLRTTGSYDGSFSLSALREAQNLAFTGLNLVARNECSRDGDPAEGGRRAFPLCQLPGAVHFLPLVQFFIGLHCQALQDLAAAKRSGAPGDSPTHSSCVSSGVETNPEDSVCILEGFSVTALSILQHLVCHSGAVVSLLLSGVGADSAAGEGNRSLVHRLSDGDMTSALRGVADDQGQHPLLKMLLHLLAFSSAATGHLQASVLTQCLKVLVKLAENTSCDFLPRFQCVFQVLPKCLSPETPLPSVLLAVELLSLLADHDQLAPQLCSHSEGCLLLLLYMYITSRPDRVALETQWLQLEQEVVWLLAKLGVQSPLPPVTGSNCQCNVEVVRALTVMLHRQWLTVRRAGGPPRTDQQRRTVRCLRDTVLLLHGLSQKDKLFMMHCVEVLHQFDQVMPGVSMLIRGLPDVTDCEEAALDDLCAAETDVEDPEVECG

Consider `C[C@@H]1COCCN1c1cc(-c2cnnn2C)cc(-c2c(F)ncc3[nH]ccc23)n1` [Compound 6], for which the IC50 (commonly the concentration at which inhibition is half-maximal) in series [1] was 211 nM. That is a sub-micromolar value.

As for `Cc1nn(C)cc1-c1cc(-c2c(F)ncc3[nH]ccc23)nc(N2CCOC[C@H]2C)c1` [Compound 13], the half-maximal inhibitory concentration (IC50) in series [1] amounted to 500 nM.

In series [1], `Cc1ncccc1-c1cc(-c2c(F)ncc3[nH]ccc23)nc(N2CCOC[C@H]2C)c1` [Compound 7] displayed an IC50 of 78 nM.

As to `Cc1n[nH]c(C)c1-c1cc(-c2c(F)ncc3[nH]ccc23)nc(N2CCOC[C@H]2C)c1` [Compound 9], in series [1], half-maximal inhibition (IC50) required 31 nM. This IC50 is about 2.5-fold lower than that of the molecule before.

In series [1], `C[C@@H]1COCCN1c1cc(-c2ccnn2C)cc(-c2c(F)ncc3[nH]ccc23)n1` [Compound 15] registered a 50% inhibitory concentration (IC50) of 204 nM.

In turn, `Cc1cnn(C)c1-c1cc(-c2c(F)ncc3[nH]ccc23)nc(N2CCOC[C@H]2C)c1` [Compound 14] returned an IC50 in series [1] of 57 nM.

Consider `Cc1nnc(C)n1-c1cc(-c2c(F)ncc3[nH]ccc23)nc(N2CCOC[C@H]2C)c1` [Compound 2], for which the half-maximal inhibitory concentration (IC50) stood at 234 nM in the series with tumor cell line LoVo and 69 nM in series [1].

With `Cc1ccccc1-c1cc(-c2c(F)ncc3[nH]ccc23)nc(N2CCOC[C@H]2C)c1` [Compound 8], in series [1], 425 nM corresponded to half-maximal inhibition (IC50).

In turn, `C[C@@H]1COCCN1c1cc(-c2cccn2C)cc(-c2c(F)ncc3[nH]ccc23)n1` [Compound 5] showed an IC50 in series [1] of 336 nM.

For the molecule `Cc1noc(C)c1-c1cc(-c2c(F)ncc3[nH]ccc23)nc(N2CCOC[C@H]2C)c1` [Compound 16], the midpoint of inhibition in series [1], the IC50, lay at 78 nM. This IC50 is about 4.3-fold lower than that of the molecule before.

With `Cc1nnn(C)c1-c1cc(-c2c(F)ncc3[nH]ccc23)nc(N2CCOC[C@H]2C)c1` [Compound 1], the figures for the concentration for half-maximal inhibition (IC50) (with tumor cell line LoVo; in series [1]) were 102 nM and 33 nM, respectively. The tumor volume in series [2] (oral 5 mg/kg (continuous administration)) was 229.99±24.42 mm^3; in series [2] (oral 10 mg/kg (3 days on, 4 days off)) it was 136.74±14.46 mm^3; in series [2] (oral 15 mg/kg (3 days on, 4 days off)) it was 108.74±9.67 mm^3. The “tumor inhibition rate TGI” value in series [2] (oral 5 mg/kg (continuous administration), day 21, p<0.01) is 88.61%; in series [2] (oral 10 mg/kg (3 days on, 4 days off), day 21, P<0.01), 101.08%; in series [2] (oral 15 mg/kg (3 days on, 4 days off), day 21, p<0.01), 104.81%. For the same molecule, the animal state result in series [2] (setting [4]) is “had no abnormality”. Besides, the “body weight of the animals” value in series [2] (setting [4]) is “did not decrease significantly”. Also, in series [3] (mouse, intravenous 1 mg/kg, plasma), the C0 is 2.8 µM. The AUC(0-t) (in general, exposure summed from dosing to a finite time, without extrapolation to infinity) in series [3] (setting [5]) stood at 2.55 µM·h; in series [3] (mouse, plasma, oral 10 mg/kg) it was 23 µM·h; in series [3] (mouse, plasma, oral 25 mg/kg) it was 82 µM·h. Moreover, the clearance (commonly the rate of elimination divided by the concentration) in series [3] (setting [5]) was 15.8 mL/min/kg. For the same molecule, the half-life (in general, how long it takes for the measured level to halve) in series [3] (setting [5]) was 1.32 h; in series [3] (mouse, plasma, oral 10 mg/kg) it was 1.4 h; in series [3] (mouse, plasma, oral 25 mg/kg) it was 3.8 h. In addition, in series [3] (mouse, plasma, intravenous 1 mg/kg, read-out: Vdss), the Vd was 1.65 L/kg. Also, the highest concentration (Cmax) (commonly the highest concentration seen after dosing) in series [3] (mouse, plasma, oral 10 mg/kg) amounted to 9.56 µM; in series [3] (mouse, plasma, oral 25 mg/kg), 17.4 µM. Besides, the F in series [3] (oral 10 mg/kg vs intravenous 1 mg/kg) is listed as 91.6%.

In turn, `COc1cc(C)c(-c2cc(-c3c(F)ncc4[nH]ccc34)nc(N3CCOC[C@H]3C)c2)cn1` [Compound 10] registered an IC50 in series [1] of 182 nM.

For the origin of these results see patent US12448378B2, “Fluoropyrrolopyridine compound and application thereof” (Wuxi Life Fountain Biotech Co., Ltd, priority 2020, dated 2025).
